The nature of assay [1]: HEK293T cytotoxicity, dose response, cytotoxicity control for miR-122 modulator project, cell-based, inhibitor set, cherry-pick, set 2 (AID 720697). It counts as functional.
Assay [2] can be described thus: growth suppression of beta-catenin-knockout colon cells, dose response, cell-based, HCT116, human colon tumor (AID 1045).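 Also: HCT116 colon tumor cells with beta catenin knocked out; cells exposed to compound for 60 hours.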 It counts as functional.
Assay [3] can be described thus: HEK293T cytotoxicity, dose response, cytotoxicity control for miR-122 modulator project, cell-based, activator set, cherry-pick (AID 720690).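 Also: HEK293T human cells scored for general mammalian cytotoxicity.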 It counts as functional.
Assay [4] in a line: cytotoxicity toward NIH3T3 fibroblasts, dose response, counter-screen, cell-based, ATP luminescence, mouse fibroblasts (AID 2010).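 Also: cells exposed to compound for about 90 hours before reading.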 It counts as functional.
A short description of assay [5]: inhibitors of HIV Env-driven cell fusion, dose response, cherry-pick (AID 652057). It counts as functional, cell-based.
Assay [6] in a line: inhibitors of firefly luciferase expression or activity, dose response, H4 neuroglioma cells, luminescence (AID 1990). It counts as functional, cell-based.
Assay [7] is described as follows: off-target signal loss in HeLa-CEM21 co-culture – HeLa F-luc CTL cells, cherry-picked, counter-screen for HIV-1 Env fusion inhibitor project, dose response (AID 652040).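 Also: potency for signal decrease marking cytotoxic or nonspecific inhibition.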 It counts as functional, cell-based.
The nature of assay [8]: Luminescence Cell-Based Dose Response HTS to Identify Inhibitors of 5'UTR Stem-Loop Driven Prion Protein mRNA Translation in H4 Neuroglioblastoma Cells. [Related pubchem assays: 1827 (Project Summary), 1813 (Primary HTS)]. It counts as functional.
Assay [9] relates to HEK293. The assay is described as follows: cells. The settings on record: Homo sapiens. It counts as functional, cell-based.
The test system of assay [10] is HEK293. Put plainly: NOD1 signaling inhibitors, primary screen, cell-based, luminescence, uHTS (AID 1578). In kind it is functional. As to conditions: Homo sapiens.
Assay [11] can be described thus: inhibitors of intracellular T. cruzi replication, confirmation, NIH3T3 host cells, beta-gal luminescence (AID 2044).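 Also: intracellular parasites grown in NIH/3T3 mouse fibroblasts as host cells; luminescent beta-galactosidase reporter signal from transgenic T. cruzi replicating inside host cells; inhibitors lower the luminescence signal.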 In kind it is functional, cell-based.
Assay [12] is described as follows: inhibitors of SNCA 5'UTR-driven reporter translation, confirmation, H4 neuroglioma cells, luminescence (AID 1988). In kind it is functional, cell-based.
Assay [13] can be described thus: control 3'UTR Renilla luciferase suppression, dose response, counter-screen for Shn3 inhibitor project, cell-based, Clone20-Shn3RL, cherry-picked (AID 624133). In kind it is functional.
A short description of assay [14]: growth suppression of PTEN-null colon cells, dose response, cell-based, HCT116 PTEN knockout (AID 1047).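 Also: HCT116 colon tumor cells with PTEN knocked out; cells exposed to compound for 60 hours before readout; potency for loss of cell viability measured by luminescence.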 It counts as functional.
Assay [15] relates to HEK293. Put plainly: NOD2 signaling inhibitors in MDP-stimulated cells, cell-based, uHTS, luminescence (AID 2001). As to conditions: Homo sapiens. It counts as functional.
A short description of assay [16]: Luminescence Cell-Based Dose Retest to Confirm Inhibitors of Cancer Stem Cells. [Related pubchem assays (depositor defined):AID2717, AID2721]. It counts as functional. As to conditions: Homo sapiens.
Another assay concerns INS1. Put plainly: beta cell apoptosis inhibitors, cytokine rescue, dose response, luminescence, retest (AID 449756).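 Also: cell death triggered by IL-1 beta plus TNF-alpha plus IFN-gamma mixture; protective hits raise ATP signal compared with cytokine alone wells.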 As to conditions: Rattus norvegicus. In kind it is functional, cell-based.
The target of assay [17] is Photoreceptor-specific nuclear receptor (Homo sapiens, UniProt Q9Y5X4). It counts as functional, cell-based.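 Also: CHO-S cells with Gal4-NCOR and VP16-NR2E3 two-hybrid luciferase reporter.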
A short description of assay [18]: Shn3 3'UTR reporter inhibitors, dose response, cell-based, Clone20 osteoblasts, firefly luciferase, cherry-picked (AID 624132).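 Also: firefly luciferase luminescence from reporter carrying the Shn3 3'UTR in osteoblasts.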 In kind it is functional.
Assay [19] can be described thus: CEM21 lymphoblast cell cytotoxicity, dose response, cytotoxicity control for viral fusion inhibitor project, CellTiter-Glo luminescence, cherry-picked (AID 652042).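 Also: potency for signal decrease meaning cytotoxicity.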 In kind it is functional, cell-based.
A short description of assay [20]: HepG2 cell cytotoxicity, dose response, cytotoxicity control for Shn3 inhibitor project, CellTiter-Glo, cherry-picked (AID 624134). In kind it is functional, cell-based.
The test system of assay [21] is HEK293. Put plainly: cells. In kind it is functional, cell-based. As to conditions: Homo sapiens. This is another data set of the same source.
The nature of assay [22]: HepG2 cell cytotoxicity, dose response, cytotoxicity control, ATP luminescence, cherry-pick, activator set 2 (AID 1053143). It counts as functional, cell-based.
The nature of assay [23]: cytotoxicity in OVCAR8 ovarian cancer cells, dose response, PAX8 project, cell-based, plate reader, dry powder samples (AID 743197). In kind it is functional. The settings on record: OVCAR-8.
A further assay concerns the target Paired box protein Pax-8 (Homo sapiens, UniProt Q06710). Put plainly: inhibitors of PAX8-driven TPO luciferase reporter, dose response, RMG-I cells, cherry-pick (AID 687027).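 Also: luciferase reporter driven by Pax8 target thyroperoxidase promoter measured by SteadyGlo luminescence.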 It counts as functional, cell-based.
The nature of assay [24]: A2780 ovarian cancer cell cytotoxicity, dose response, cytotoxicity control, plate reader, dry powder samples (AID 743046). In kind it is functional, cell-based.
Assay [25] in a line: NIH:OVCAR-3 ovarian cancer cell cytotoxicity, dose response, PAX8 inhibitor project, plate reader, dry powder samples (AID 743044). In kind it is functional, cell-based.
Assay [26] is described as follows: non-specific cell cytotoxicity, dose response, cytotoxicity control for PAX8 inhibitor project, plate reader, dry powder samples (AID 743021). It counts as functional, cell-based.
Assay [27] in a line: A549 cell cytotoxicity, dose response, cytotoxicity control, plate reader, cherry-pick, antagonist series (AID 743412). It counts as functional, cell-based.
Assay [28] concerns the target T1, Oxysterols receptor LXR-beta (Homo sapiens, UniProt P55055).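 Also: Cell-based luminescence dose-response assay of agonist activity at LXR, run as a confirmatory counterscreen to a daf-12 agonist screen; HEK293 cells with Gal4-LXR fusion and GAL4-driven luciferase reporter; agonist potency from rising luciferase signal of a Gal4-LXR reporter.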
T1 sequence (P55055 whole entry): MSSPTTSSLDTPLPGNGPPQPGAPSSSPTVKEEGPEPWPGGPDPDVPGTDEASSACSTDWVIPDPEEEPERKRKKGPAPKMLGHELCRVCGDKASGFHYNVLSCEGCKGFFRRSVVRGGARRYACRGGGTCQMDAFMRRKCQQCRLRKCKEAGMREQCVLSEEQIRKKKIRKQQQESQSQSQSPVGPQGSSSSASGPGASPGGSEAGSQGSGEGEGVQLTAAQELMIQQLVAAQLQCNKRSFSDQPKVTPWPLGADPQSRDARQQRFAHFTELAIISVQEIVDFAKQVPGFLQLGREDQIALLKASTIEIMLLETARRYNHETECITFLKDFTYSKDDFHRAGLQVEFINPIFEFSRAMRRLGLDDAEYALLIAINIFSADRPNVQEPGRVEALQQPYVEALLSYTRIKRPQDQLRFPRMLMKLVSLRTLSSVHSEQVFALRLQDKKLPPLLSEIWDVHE
It counts as functional, cell-based.

A short description of assay [29]: HepG2 cell cytotoxicity, dose response, cytotoxicity control, plate reader, cherry-pick, antagonist series (AID 743416). In kind it is functional, cell-based.
The nature of assay [30]: LGR2 antagonists, dose response, cell-based, HEK293, CRE-luciferase reporter, cherry pick, set 2 (AID 743343).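 Also: transfected cells were stimulated with diluted bursicon conditioned medium after compound addition.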 It counts as functional.
Assay [31] is described as follows: cells.
Assay [32] can be described thus: MC4R antagonists, dose response, counter-screen for LGR2 antagonist project, cell-based, plate reader, cherry pick (AID 743444).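 Also: transfected HEK 293 cells stimulated with alpha-MSH peptide; potency of inhibitors of the alpha-MSH evoked signal.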 It counts as functional.
Assay [33] in a line: ADAM10 protease inhibitors, dose response, selectivity assay for ADAM17 exosite inhibitor project, biochemical, FRET peptide substrate, recombinant human ADAM10 (AID 743259).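 Also: ADAM10 enzyme cleaving a FRET peptide substrate.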
The target of assay [34] is Endoplasmic reticulum aminopeptidase 1 (Homo sapiens, UniProt Q9NZ08). The assay is described as follows: ERAP1 aminopeptidase inhibitors, dose response, biochemical, cherry-pick, set 2, plate reader (AID 743314).
Assay [35] addresses T2, Endoribonuclease toxin MazF (Escherichia coli K-12, UniProt P0AE70).
T2 sequence (P0AE70 whole entry): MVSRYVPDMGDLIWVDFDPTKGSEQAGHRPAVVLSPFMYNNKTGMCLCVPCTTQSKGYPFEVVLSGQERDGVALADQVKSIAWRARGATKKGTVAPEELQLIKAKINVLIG
Put plainly: fluorescent RNA oligo signal without MazF, dose response, counter-screen for MazEF activator project, biochemical, fluorescence, single-stranded RNase substrate (AID 588502). It counts as functional.

Assay [36] addresses T2, Endoribonuclease toxin MazF. The assay is described as follows: MazF toxin RNase activators, dose response, biochemical, fluorescence, single-stranded RNA substrate, uHTS hits (AID 588481). In kind it is functional.
The target of another assay is Major prion protein (Homo sapiens, UniProt P04156). It counts as functional, cell-based.
The nature of assay [37]: cells. The source holds these as a separate data set.

Here are results for eight compounds from ChEMBL document CHEMBL1201862, “PubChem BioAssay data set” (2004).

The source made the active and inactive calls. Some results are limits rather than exact numbers.

Turning to `CCN(CC)S(=O)(=O)c1ccc(NC(=O)Nc2cccc(C(F)(F)F)c2)cc1`, the AC50 in [1] was 9.71 µM (active); in [3], 5.75 µM (active); in assay [5] it was 9.67 µM (active); in [7], 10.3 µM (active); in assay [13] it was 10.8 µM (active); in assay [16], 2.13 µM (active). The AC50 is 4.6 µM (active) in the assay with INS1, 5.6 µM (active) in assay [18], 13.6 µM (active) in assay [19] and 27.6 µM (active) in assay [20]. The EC50 in assay [2] is 6.35 µM (active); in assay [4], > 60 µM (not active); in [6], > 120 µM (not active); in assay [8] it was 14.9 µM (active); in the assay with HEK293 [10], > 20 µM (inactive); in assay [11], 1.67 µM (active). The figures for the EC50 in [12] and in [14] were 11.1 µM (active) and 4.56 µM (active), respectively. Moreover, the concentration for half-maximal inhibition (IC50) in the assay with HEK293 [9] was 8.73 µM (active); in the assay with HEK293 [15] it was 4.48 µM (inactive); in assay [17], 6.94 µM (active); with HEK293 [21] it was 3.14 µM (active).
For the compound `Cc1noc(C)c1C(=O)Nc1nc2ccc(F)cc2s1`, in assay [22], the AC50 was > 52 µM (inactive).
In the case of `COc1ccc(CN(C)C[C@@H]2OCCCC[C@H](C)Oc3ccc(NC(=O)Nc4ccc(C(F)(F)F)cc4)cc3C(=O)N([C@@H](C)CO)C[C@H]2C)cc1`, the AC50 in assay [23] is 25.2 µM (active); at Paired box protein Pax-8, 14.6 µM (active); in assay [24], 21.9 µM (active); in [25] it was 2.91 µM (active); in assay [26] it was 63.1 µM (active).
With `Cc1ccc(Nc2nc(-c3ccccc3)cs2)nc1`, the AC50 is 37.4 µM (active) in assay [27], > 52 µM (inactive) in assay [29], 8.03 µM (active) in assay [30] and 13.3 µM (active) in [32]. The EC50 (in [28]; in “cells [31]”) was > 67.5 µM (inactive) throughout.
Regarding `COc1ccc(-c2nnc(S)n2-c2ccc(Br)cc2)cc1OC`, in assay [33], the IC50 is > 69.5 µM (inactive).
For `O=c1ccc2cc(OC3O[C@H](CO)[C@@H](O)[C@H](O)[C@H]3O)c(O)cc2o1` (stereo partly specified), the AC50 in assay [34] was 2.24 µM (active).
For the compound `Nc1c(C(=O)c2ccccc2)sc2nsc(SCCN3CCOCC3)c12`, the EC50 in [35] and in assay [36] was > 99 µM (inactive) each time. In assay [22], the AC50 is 51.6 µM (active).
For the compound `Brc1cc(Br)c2nc3c(cc2c1)CCC3`, the IC50 on Major prion protein is 5.89 µM (active); in “cells [37]”, > 138 µM (inactive).
